From patent US20260000079A1, “COMPOSITIONS AND METHODS FOR MODULATING IMMUNITY IN PLANTS” (BOYCE THOMPSON INSTITUTE FOR PLANT RESEARCH, INC., priority 2019, published 2026)

Key:
[1] = tested on: MAPK, jasmonic acid and salicylic acid signaling pathways; conditions: Manosalva, et al. (2015); cited from earlier work
[2] = tested on: Pseudomonas syringae DC3000; experiment: Bacterial growth assay in ascr #18-pretreated Arabidopsis; type: in vivo, Pseudomonas syringae pv. tomato; conditions: 1 μM, 24 hours pretreatment; acx1acx5 and wildtype Arabidopsis
Procedure: FIG. 4A provides a schematic of the experimental designs for assessing activation of defense pathways and resistance to nematodes and bacteria. […] Bacterial growth was assayed 3 days post inoculation. Data are averages±s.d. (n=17). […] Arabidopsis seedlings were treated with buffer or the indicated concentrations of ascr #18 for 48 hours before inoculation with approximately 300 freshly hatched M. incognita J2 larvae. The numbers of root galls of infected plants were counted 6 weeks post inoculation. Data are averages±s.d. (n≥15). […] Larvae touching root tips (FIG. 4D) or the whole area of roots (FIG. 4E) were counted at 6 hours post seedling transfer. […] Transcript levels were determined by qRT-PCR and plotted as relative fold-change compared to mock treated plants. […]
Given the rapid conversion of ascr #18 into shorter-chained ascarosides via pβo, the inventors investigated whether metabolism of the pathogen-produced compound ascr #18 produced by plant pathogenic nematodes is required for the activation of plant defense responses and resistance to other non-nematode pathogens. […] To test whether ascaroside metabolism plays a role in ascr #18-mediated enhanced resistance to a bacterial pathogen, the effect of ascr #18 treatment on infection with Pseudomonas syringae DC3000 was evaluated in the acx1acx5 mutant and wildtype Arabidopsis.

[3] = tested on: bacteria, viruses, fungi, oomycetes, and nematodes; conditions: Manosalva, et al. (2015); cited from earlier work
[4] = tested on: Arabidopsis, tomato, and wheat roots; experiment: LC-MS comparative metabolomics of ascr #18-treated plant roots; type: in vivo
Procedure: Plant tissues were immediately frozen in liquid nitrogen and ground to a fine powder and extracted with 350 μL mixture of water/methanol/chloroform (1:2:1) for 12 hours at 4° C., with shaking at 220 rpm. The extracts were dried in vacuo, resuspended in 100-200 μL of 80% methanol and analyzed by LC/MS. For root tissues, seedlings were extensively washed three times with the excess amount of distilled water and dried on filter paper. The root tissues from 40 seedlings were pooled in one tube and then similarly extracted. Mixed stage C. elegans culture extract was prepared as described (Panda, et al. (2017) Angew Chem. Int. Ed. Engl. 56(17): 4729-4733).
High resolution LC-MS analysis was performed on a Dionex™ 3000 UPLC system coupled with a Thermo Q Exactive™ high-resolution mass spectrometer as described (Artyukhin, et al. (2018) J. Am. Chem. Soc. 140 (8): 2841-2852; Panda, et al. (2017) Angew Chem. Int. Ed. Engl. 56 (17): 4729-4733). Metabolite extracts were separated using water-acetonitrile gradient using Agilent ZORBOX Eclispse XDB-C18 rapid resolution column (2.1 mm×150 mm, particle size 1.8-micron) maintained at 40° C. Solvent A: 0.1% formic acid in water; Solvent B: 0.1% formic acid in acetonitrile. […] Ascarosides were detected in negative ionization mode as [M-H]— and MS/MS spectra and retention times confirmed by comparison with known standards. […]

[5] = tested on: entomopathogenic nematode species; conditions: Kaplan, et al. (2012); cited from earlier work

## CC1O[C@@H](O[C@@H](C)CCCCCCCCC(=O)O)C(O)C[C@H]1O (stereo in doubt) [ascr #18, (10R)-(3′R,5′R-dihydroxy-6′S-methyl-(2H)-tetrahydropyran-2-yloxy)-undecanoic acid]
[1]
  activation of defense signaling pathways in monocots and dicots: activation of conserved defense signaling pathways
[2]
  protection against P. syringae infection (bacterial growth 3 days post inoculation): comparable levels of protection
[3]
  resistance of plants to pathogens: enhance resistance of monocot and dicot plants to a wide range of pathogens
[4]; roots soaked 24 hours in ascr #18 solution, monocots and dicots
  uptake and metabolism of ascr #18 in roots: taken up and subsequently metabolized into ascarosides with shorter fatty-acid side chains

## C[C@H](CCC(=O)O)O[C@@H]1O[C@@H](C)[C@H](O)C[C@H]1O [ascr #9]
[5]
  dispersal behavior: mediate dispersal behavior
[4]; all three plant species, ascr #18 root treatment 24 hours
  abundance among ascr #18-derived metabolites in roots (LC-MS peak area): most abundant differential metabolite
